From patent US8921059B2, “Method and kit for detection of guaiacol-producing bacterium” (Calpis Co., Ltd., priority 2009, dated 2014)
“Also recorded” adds a separate entry of the source.

Experiments:
[1] = tested on: A. acidocaldarius ATCC27009; assay: Colony formation of thermotolerant acidophilic bacteria on YSG agar medium containing the substrate (Example 1); type: cell-based, Alicyclobacillus acidocaldarius; set-up: key to detected level of colonies: ++: the detected level was at or above the level of the medium without a substrate (i.e. YSG medium); +: the detected level was lower than the level of the medium without a substrate; −: undetectable; conditions: for detected level of colonies: cultivation at 45° C. for 3 days; for colonies detected: 45° C. for 3 days
Procedure: (§1) A YSG agar medium containing vanillin, vanillic acid or ferulic acid was used to study the colony formation of thermotolerant acidophilic bacteria (TAB). Four bacterial strains used were A. acidoterrestris ATCC49025, A. acidiphilus JCM21417, A. acidocaldarius ATCC27009 and A. pomorum JCM21459. Among these, A. acidoterrestris ATCC49025 and A. acidiphilus JCM21417 have been reported as the bacterial strains producing guaiacol. […] After cooling to about 50° C., pH was adjusted to 3.7 with 10% sulfuric acid and a plate medium was prepared. The suspensions of the respective bacterial strains were subjected to a heat-shock treatment at 70° C. for 20 min. The bacterial suspensions were serially diluted with phosphate buffered saline up to 10^3 CFU/mL and 100 μL from the dilutions was smeared on the plates for culture. Cultivation was carried out at 45° C. for 3 days before the colonies formed were visually inspected. Similar experiments were carried out with replacing vanillic acid with vanillin or ferulic acid. When the medium was not easily solidified, the amount of agar was appropriately adjusted.

[2] = tested on: A. acidoterrestris ATCC49025; assay: Effects of culture temperature on the detection level of colonies (Example 2); type: cell-based, Alicyclobacillus acidoterrestris; conditions: for number of colonies, relative value (YSG medium without any substrate at 45° C. for 3 days = 100): 75 ppm in YSG medium
Procedure: Effects of culture temperature on the detection level of colonies of A. acidoterrestris ATCC49025 were studied using YSG agar medium containing vanillin, vanillic acid or ferulic acid. […] The suspensions containing the same number of bacterial cells of A. acidoterrestris ATCC49025 were smeared on the plates and cultured at 45° C. or 30° C. A YSG medium without any substrate was used as a control. The values are expressed as relative values to the number of colonies obtained after cultivation at 45° C. for 3 days in a YSG medium without any substrate being regarded as 100.

[3] = tested on: A. acidoterrestris ATCC49025; assay: Colony formation of thermotolerant acidophilic bacteria on YSG agar medium containing the substrate (Example 1); type: cell-based, Alicyclobacillus acidoterrestris; set-up: key to detected level of colonies: ++: the detected level was at or above the level of the medium without a substrate (i.e. YSG medium); +: the detected level was lower than the level of the medium without a substrate; −: undetectable; conditions: for detected level of colonies: cultivation at 45° C. for 3 days
Description: A YSG agar medium containing vanillin, vanillic acid or ferulic acid was used to study the colony formation of thermotolerant acidophilic bacteria (TAB). Four bacterial strains used were A. acidoterrestris ATCC49025, A. acidiphilus JCM21417, A. acidocaldarius ATCC27009 and A. pomorum JCM21459. Among these, A. acidoterrestris ATCC49025 and A. acidiphilus JCM21417 have been reported as the bacterial strains producing guaiacol. A YSG medium (Merck K.K., YGS Agar; 20.0 g) and vanillic acid (Wako Pure Chemical Industries, Ltd.; 0 to 250 mg) were dissolved in 1000 g of water with heating and subjected to autoclave sterilization (121° C. and 15 min.). After cooling to about 50° C., pH was adjusted to 3.7 with 10% sulfuric acid and a plate medium was prepared. The suspensions of the respective bacterial strains were subjected to a heat-shock treatment at 70° C. for 20 min. The bacterial suspensions were serially diluted with phosphate buffered saline up to 10^3 CFU/mL and 100 μL from the dilutions was smeared on the plates for culture. Cultivation was carried out at 45° C. for 3 days before the colonies formed were visually inspected. Similar experiments were carried out with replacing vanillic acid with vanillin or ferulic acid. When the medium was not easily solidified, the amount of agar was appropriately adjusted.

[4] = tested on: A. acidiphilus JCM21417; assay: as above; type: cell-based, Alicyclobacillus acidiphilus; set-up: key to detected level of colonies: ++: the detected level was at or above the level of the medium without a substrate (i.e. YSG medium); +: the detected level was lower than the level of the medium without a substrate; −: undetectable; conditions: for detected level of colonies: cultivation at 45° C. for 3 days
Procedure: as §1

[5] = tested on: A. pomorum JCM21459; assay: as above; type: cell-based, Alicyclobacillus pomorum; set-up: key to detected level of colonies: ++: the detected level was at or above the level of the medium without a substrate (i.e. YSG medium); +: the detected level was lower than the level of the medium without a substrate; −: undetectable; conditions: for detected level of colonies: cultivation at 45° C. for 3 days; for colonies detected: 45° C. for 3 days
Procedure: as §1

[6] = used instead of vanillic acid, concentration not given

Compound: COc1cc(C=O)ccc1O [vanillin]
- detected level of colonies ([1]; 500 ppm in YSG agar): −
- detected level of colonies ([1]; 750 ppm in YSG agar): −
- detected level of colonies ([1]; 900 ppm in YSG agar): −
- detected level of colonies ([1]; 950 ppm in YSG agar): −
- detected level of colonies ([1]; 1000 ppm in YSG agar): −
- detection sensitivity compared to the medium without any substrate ([2]; 750 ppm): improved
- number of colonies at 30° C. for 5 days compared with 45° C. for 3 days [2, 6]: The same tendency was observed
- detected level of colonies ([3]; 500 ppm in YSG agar): ++
- detected level of colonies ([3]; 750 ppm in YSG agar): ++
- detected level of colonies ([3]; 900 ppm in YSG agar): ++
- detected level of colonies ([3]; 950 ppm in YSG agar): ++
- detected level of colonies ([3]; 1000 ppm in YSG agar): +
- detected level of colonies ([4]; 500 ppm in YSG agar): +
- detected level of colonies ([4]; 750 ppm in YSG agar): +
- detected level of colonies ([4]; 900 ppm in YSG agar): +
- detected level of colonies ([4]; 950 ppm in YSG agar): −
- detected level of colonies ([4]; 1000 ppm in YSG agar): −
- detected level of colonies ([5]; 500 ppm in YSG agar): −
- detected level of colonies ([5]; 750 ppm in YSG agar): −
- detected level of colonies ([5]; 900 ppm in YSG agar): −
- detected level of colonies ([5]; 950 ppm in YSG agar): −
- detected level of colonies ([5]; 1000 ppm in YSG agar): −

Compound: COc1cc(C(=O)O)ccc1O [vanillic acid]
- detected level of colonies ([1]; 10 ppm in YSG agar): ++
- detected level of colonies ([1]; 50 ppm in YSG agar): −
- detected level of colonies ([1]; 75 ppm in YSG agar): −
- colonies detected ([1]; 75 ppm): no colony was detected
- detected level of colonies ([1]; 100 ppm in YSG agar): −
- colonies detected ([1]; 100 ppm): no colony was detected
- detected level of colonies ([1]; 150 ppm in YSG agar): −
- detected level of colonies ([1]; 200 ppm in YSG agar): −
- detected level of colonies ([1]; 225 ppm in YSG agar): −
- detected level of colonies ([1]; 250 ppm in YSG agar): −
- detection sensitivity compared to the medium without any substrate ([2]; 50 ppm): improved
- number of colonies, relative value (YSG medium without any substrate at 45° C. for 3 days = 100) ([2]; 30° C., 5 days): 186
- number of colonies, relative value (YSG medium without any substrate at 45° C. for 3 days = 100) ([2]; 45° C., 3 days): 183
- number of colonies at 30° C. for 5 days compared with 45° C. for 3 days ([2]; 75 ppm in solid medium): the same number of colonies is obtained; also recorded: almost the same number of colonies was detected
- colonies detected compared to the medium without any substrate ([2]; 75 ppm, 45° C.): more colonies were detected
- detected level of colonies ([3]; 10 ppm in YSG agar): ++
- detected level of colonies ([3]; 50 ppm in YSG agar): ++
- detected level of colonies ([3]; 75 ppm in YSG agar): ++
- colonies detected compared with medium without vanillic acid ([3]; 75 ppm, 45° C. for 3 days): the same level or more colonies were detected as in the medium without vanillic acid
- detected level of colonies ([3]; 100 ppm in YSG agar): ++
- colonies detected compared with medium without vanillic acid ([3]; 100 ppm, 45° C. for 3 days): the same level or more colonies were detected as in the medium without vanillic acid
- detected level of colonies ([3]; 150 ppm in YSG agar): ++
- colonies detected compared with medium without vanillic acid ([3]; 150 ppm, 45° C. for 3 days): detected at the same level as in the medium without vanillic acid
- detected level of colonies ([3]; 200 ppm in YSG agar): ++
- colonies detected compared with medium without vanillic acid ([3]; 200 ppm, 45° C. for 3 days): detected at the same level as in the medium without vanillic acid
- detected level of colonies ([3]; 225 ppm in YSG agar): +
- detection sensitivity of AAT ([3]; 225 ppm, 45° C. for 3 days): lower
- detected level of colonies ([3]; 250 ppm in YSG agar): −
- colonies detected ([3]; 250 ppm or more, 45° C. for 3 days): no colonies were detected
- detected level of colonies ([4]; 10 ppm in YSG agar): ++
- detected level of colonies ([4]; 50 ppm in YSG agar): ++
- detected level of colonies ([4]; 75 ppm in YSG agar): ++
- colonies detected compared with medium without vanillic acid ([4]; 75 ppm, 45° C. for 3 days): the same level or more colonies were detected as in the medium without vanillic acid
- detected level of colonies ([4]; 100 ppm in YSG agar): −
- colonies detected ([4]; 100 ppm, 45° C. for 3 days): no colony was detected
- detected level of colonies ([4]; 150 ppm in YSG agar): −
- detected level of colonies ([4]; 200 ppm in YSG agar): −
- detected level of colonies ([4]; 225 ppm in YSG agar): −
- detected level of colonies ([4]; 250 ppm in YSG agar): −
- detected level of colonies ([5]; 10 ppm in YSG agar): ++
- detected level of colonies ([5]; 50 ppm in YSG agar): −
- detected level of colonies ([5]; 75 ppm in YSG agar): −
- colonies detected ([5]; 75 ppm): no colony was detected
- detected level of colonies ([5]; 100 ppm in YSG agar): −
- colonies detected ([5]; 100 ppm): no colony was detected
- detected level of colonies ([5]; 150 ppm in YSG agar): −
- detected level of colonies ([5]; 200 ppm in YSG agar): −
- detected level of colonies ([5]; 225 ppm in YSG agar): −
- detected level of colonies ([5]; 250 ppm in YSG agar): −

Compound: COc1cc(/C=C/C(=O)O)ccc1O [ferulic acid]
- detected level of colonies ([1]; 25 ppm in YSG agar): −
- detected level of colonies ([1]; 50 ppm in YSG agar): −
- detected level of colonies ([1]; 75 ppm in YSG agar): −
- detection sensitivity compared to the medium without any substrate ([2]; 25 ppm): improved
- number of colonies at 30° C. for 5 days compared with 45° C. for 3 days [2, 6]: The same tendency was observed
- detected level of colonies ([3]; 25 ppm in YSG agar): ++
- detected level of colonies ([3]; 50 ppm in YSG agar): ++
- detected level of colonies ([3]; 75 ppm in YSG agar): −
- detected level of colonies ([4]; 25 ppm in YSG agar): ++
- detected level of colonies ([4]; 50 ppm in YSG agar): −
- detected level of colonies ([4]; 75 ppm in YSG agar): −
- detected level of colonies ([5]; 25 ppm in YSG agar): −
- detected level of colonies ([5]; 50 ppm in YSG agar): −
- detected level of colonies ([5]; 75 ppm in YSG agar): −
